The record followed here is patent publication EP4722207A1, “OXOISOINDOLINYL-SUBSTITUTED TETRAHYDROPYRIMIDINEDIONE DERIVATIVE AND USE THEREOF” (Gluetacs Therapeutics (Shanghai) Co., Ltd., priority 2023, dated 2024).

Each structure is given as a SMILES string.

Common to all, as to type: cell-based
Holding throughout (conditions): 24 hours of compound treatment, 50 nM and 500 nM

Test [1] deals with T1, GSPT1 (Homo sapiens, UniProt P15170+Q96SW2).
T1 construct: effects of the compounds of the present disclosure on the expression of target proteins in cells; endogenous in cells; host or cells: human PBMCs (hPBMCs)
As to the kind of experiment: Western-blot assay, substrate protein degradation in hPBMCs: GSPT1.

The target of test [2] is T2, IKZF3 (Homo sapiens, UniProt Q96SW2+Q9UKT9).
T2 construct: effects of the compounds of the present disclosure on the expression of target proteins in cells; endogenous in cells; host or cells: human PBMCs (hPBMCs)
In words: Western-blot assay, substrate protein degradation in hPBMCs: IKZF3.

For test [3], the target named is T3, IKZF2 (Homo sapiens, UniProt Q96SW2+Q9UKS7).
T3 construct: effects of the compounds of the present disclosure on the expression of target proteins in cells; endogenous in cells; host or cells: human PBMCs (hPBMCs)
As to the kind of experiment: Western-blot assay, substrate protein degradation in hPBMCs: IKZF2.

Test [4] deals with T4, IKZF1 (Homo sapiens, UniProt Q13422+Q96SW2).
T4 construct: effects of the compounds of the present disclosure on the expression of target proteins in cells; endogenous in cells; host or cells: human PBMCs (hPBMCs)
As to the kind of experiment: Western-blot assay, substrate protein degradation in hPBMCs: IKZF1.

Test [5] addresses T5, WEE1 (Homo sapiens, UniProt P30291+Q96SW2).
T5 construct: effects of the compounds of the present disclosure on the expression of target proteins in cells; endogenous in cells; host or cells: human PBMCs (hPBMCs)
As to the kind of experiment: Western-blot assay, substrate protein degradation in hPBMCs: WEE1.

Test [6] has as its target T6, CK1α (Homo sapiens, UniProt P48729+Q96SW2).
T6 construct: effects of the compounds of the present disclosure on the expression of target proteins in cells; endogenous in cells; host or cells: human PBMCs (hPBMCs)
As to the kind of experiment: Western-blot assay, substrate protein degradation in hPBMCs: CK1α.

T6 sequence (P48729 whole entry): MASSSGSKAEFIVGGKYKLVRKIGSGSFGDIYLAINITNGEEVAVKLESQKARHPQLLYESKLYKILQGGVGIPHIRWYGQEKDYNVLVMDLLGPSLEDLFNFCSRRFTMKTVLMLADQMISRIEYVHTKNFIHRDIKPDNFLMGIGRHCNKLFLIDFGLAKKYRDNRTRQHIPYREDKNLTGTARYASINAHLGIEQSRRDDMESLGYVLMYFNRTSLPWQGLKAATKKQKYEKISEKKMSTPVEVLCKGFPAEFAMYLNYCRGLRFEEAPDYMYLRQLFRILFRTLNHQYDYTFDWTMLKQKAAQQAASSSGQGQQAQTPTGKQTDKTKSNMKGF
T6 sequence (Q96SW2 whole entry): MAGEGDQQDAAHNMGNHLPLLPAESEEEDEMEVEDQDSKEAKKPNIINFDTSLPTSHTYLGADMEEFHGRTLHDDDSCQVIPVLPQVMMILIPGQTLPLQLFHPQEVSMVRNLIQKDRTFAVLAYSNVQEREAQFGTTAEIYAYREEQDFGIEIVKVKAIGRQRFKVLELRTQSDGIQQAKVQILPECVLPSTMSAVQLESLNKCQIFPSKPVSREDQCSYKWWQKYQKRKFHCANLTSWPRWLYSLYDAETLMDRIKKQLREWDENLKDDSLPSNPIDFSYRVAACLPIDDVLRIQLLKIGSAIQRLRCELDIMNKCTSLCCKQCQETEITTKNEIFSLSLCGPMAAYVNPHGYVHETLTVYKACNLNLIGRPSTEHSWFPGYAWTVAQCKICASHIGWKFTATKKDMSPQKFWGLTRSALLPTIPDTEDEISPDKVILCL
T6 sequence (Q16531 whole entry partner): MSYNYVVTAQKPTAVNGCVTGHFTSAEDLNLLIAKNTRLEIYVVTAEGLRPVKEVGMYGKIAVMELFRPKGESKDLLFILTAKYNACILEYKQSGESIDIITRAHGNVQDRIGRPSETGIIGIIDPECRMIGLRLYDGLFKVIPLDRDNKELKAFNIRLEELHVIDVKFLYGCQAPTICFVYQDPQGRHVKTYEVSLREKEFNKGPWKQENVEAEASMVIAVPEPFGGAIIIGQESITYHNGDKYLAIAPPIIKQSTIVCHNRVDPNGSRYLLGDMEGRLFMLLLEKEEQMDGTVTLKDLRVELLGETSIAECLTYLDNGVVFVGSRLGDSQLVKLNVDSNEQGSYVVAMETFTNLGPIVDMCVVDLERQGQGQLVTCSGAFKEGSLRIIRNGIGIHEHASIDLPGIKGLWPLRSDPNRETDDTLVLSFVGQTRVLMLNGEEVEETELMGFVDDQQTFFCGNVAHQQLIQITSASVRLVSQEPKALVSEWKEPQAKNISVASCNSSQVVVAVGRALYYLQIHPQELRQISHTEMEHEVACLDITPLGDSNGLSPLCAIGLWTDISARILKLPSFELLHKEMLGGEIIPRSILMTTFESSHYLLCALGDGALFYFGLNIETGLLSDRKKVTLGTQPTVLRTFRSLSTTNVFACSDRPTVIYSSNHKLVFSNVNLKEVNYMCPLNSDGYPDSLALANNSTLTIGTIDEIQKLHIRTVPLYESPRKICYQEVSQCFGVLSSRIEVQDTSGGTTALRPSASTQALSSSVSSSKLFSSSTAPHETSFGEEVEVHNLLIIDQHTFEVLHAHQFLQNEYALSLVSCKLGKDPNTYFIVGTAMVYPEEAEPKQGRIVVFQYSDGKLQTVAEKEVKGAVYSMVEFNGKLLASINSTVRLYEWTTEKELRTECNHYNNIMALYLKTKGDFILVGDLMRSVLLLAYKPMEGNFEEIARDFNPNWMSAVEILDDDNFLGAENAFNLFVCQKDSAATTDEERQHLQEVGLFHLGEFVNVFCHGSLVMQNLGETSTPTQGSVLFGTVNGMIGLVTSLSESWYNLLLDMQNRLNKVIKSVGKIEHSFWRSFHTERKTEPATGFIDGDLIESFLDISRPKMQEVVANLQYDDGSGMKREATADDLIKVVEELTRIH
T4 sequence (Q13422 whole entry): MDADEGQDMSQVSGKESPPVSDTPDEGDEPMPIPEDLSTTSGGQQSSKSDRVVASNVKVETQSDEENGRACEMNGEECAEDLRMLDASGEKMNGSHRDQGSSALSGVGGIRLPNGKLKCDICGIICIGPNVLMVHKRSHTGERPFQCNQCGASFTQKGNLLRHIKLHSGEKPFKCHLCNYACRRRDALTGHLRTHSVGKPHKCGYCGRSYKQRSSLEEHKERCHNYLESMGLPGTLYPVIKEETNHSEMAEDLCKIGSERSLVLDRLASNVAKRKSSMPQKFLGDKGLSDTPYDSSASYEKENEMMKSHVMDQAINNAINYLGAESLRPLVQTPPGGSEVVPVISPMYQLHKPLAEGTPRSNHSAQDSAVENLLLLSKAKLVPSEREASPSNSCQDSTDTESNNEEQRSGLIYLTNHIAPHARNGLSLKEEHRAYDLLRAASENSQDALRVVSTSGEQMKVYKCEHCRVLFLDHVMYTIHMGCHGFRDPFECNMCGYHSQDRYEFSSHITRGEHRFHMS
T4 sequence (Q96SW2 whole entry): as the sequence (Q96SW2 whole entry) above
T4 sequence (Q16531 whole entry partner): as the sequence (Q16531 whole entry partner) above
T1 sequence (P15170 whole entry): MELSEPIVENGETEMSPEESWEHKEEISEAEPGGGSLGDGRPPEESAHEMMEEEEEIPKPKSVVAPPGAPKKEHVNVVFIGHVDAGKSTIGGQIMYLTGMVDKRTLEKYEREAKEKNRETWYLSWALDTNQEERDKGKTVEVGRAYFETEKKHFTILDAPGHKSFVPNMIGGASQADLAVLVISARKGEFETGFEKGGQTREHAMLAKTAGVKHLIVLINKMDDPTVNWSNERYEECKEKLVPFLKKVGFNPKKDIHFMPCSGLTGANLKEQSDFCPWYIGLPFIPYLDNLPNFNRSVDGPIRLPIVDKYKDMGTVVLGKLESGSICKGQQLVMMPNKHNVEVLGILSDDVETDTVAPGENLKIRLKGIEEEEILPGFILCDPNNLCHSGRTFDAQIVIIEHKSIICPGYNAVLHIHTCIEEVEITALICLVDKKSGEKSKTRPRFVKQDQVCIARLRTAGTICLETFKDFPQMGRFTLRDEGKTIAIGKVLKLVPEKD
T1 sequence (Q96SW2 whole entry): as the sequence (Q96SW2 whole entry) above
T1 sequence (Q16531 whole entry partner): as the sequence (Q16531 whole entry partner) above
T5 sequence (P30291 whole entry): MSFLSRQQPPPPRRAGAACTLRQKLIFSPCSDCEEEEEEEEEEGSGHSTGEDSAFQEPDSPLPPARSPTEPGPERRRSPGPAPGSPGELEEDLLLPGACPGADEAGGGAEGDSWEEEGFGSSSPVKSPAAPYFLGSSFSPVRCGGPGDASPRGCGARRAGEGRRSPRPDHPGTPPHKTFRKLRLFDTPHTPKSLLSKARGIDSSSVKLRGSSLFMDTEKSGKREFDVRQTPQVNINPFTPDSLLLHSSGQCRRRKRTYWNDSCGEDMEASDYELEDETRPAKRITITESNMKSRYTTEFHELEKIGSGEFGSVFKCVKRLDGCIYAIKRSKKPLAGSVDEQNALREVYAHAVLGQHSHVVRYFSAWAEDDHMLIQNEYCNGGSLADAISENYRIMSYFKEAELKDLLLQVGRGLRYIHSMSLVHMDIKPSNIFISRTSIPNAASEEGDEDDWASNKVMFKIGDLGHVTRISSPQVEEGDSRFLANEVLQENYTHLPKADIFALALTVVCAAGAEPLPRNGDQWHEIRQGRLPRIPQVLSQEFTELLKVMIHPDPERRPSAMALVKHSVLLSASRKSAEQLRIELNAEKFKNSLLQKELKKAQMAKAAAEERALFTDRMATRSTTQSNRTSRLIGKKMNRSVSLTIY
T5 sequence (Q96SW2 whole entry): as the sequence (Q96SW2 whole entry) above
T5 sequence (Q16531 whole entry partner): as the sequence (Q16531 whole entry partner) above
T2 sequence (Q9UKT9 whole entry): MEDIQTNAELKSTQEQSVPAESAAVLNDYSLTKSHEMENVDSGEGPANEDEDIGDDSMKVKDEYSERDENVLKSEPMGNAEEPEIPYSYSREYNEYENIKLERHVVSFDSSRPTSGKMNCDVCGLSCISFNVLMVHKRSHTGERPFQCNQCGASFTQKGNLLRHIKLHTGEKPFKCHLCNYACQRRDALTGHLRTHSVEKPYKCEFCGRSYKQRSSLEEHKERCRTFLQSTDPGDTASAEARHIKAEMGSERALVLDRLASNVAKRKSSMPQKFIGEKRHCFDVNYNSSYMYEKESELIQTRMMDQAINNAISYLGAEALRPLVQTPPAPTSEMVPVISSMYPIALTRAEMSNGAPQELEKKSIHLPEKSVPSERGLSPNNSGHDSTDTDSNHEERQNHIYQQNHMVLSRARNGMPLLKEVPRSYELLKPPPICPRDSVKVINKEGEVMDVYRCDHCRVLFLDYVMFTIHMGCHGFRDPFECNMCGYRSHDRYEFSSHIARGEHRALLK
T2 sequence (Q96SW2 whole entry): as the sequence (Q96SW2 whole entry) above
T2 sequence (Q16531 whole entry partner): as the sequence (Q16531 whole entry partner) above

`CC1CN(C(c2ccccc2)c2ccccc2)CC(C)N1Cc1ccc2c(c1)CN(N1CCC(=O)NC1=O)C2=O` (stereo not drawn) [GT-07433, 1-(5-((4-benzhydryl-2,6-dimethylpiperazin-1-yl)methyl)-1-oxoisoindolin-2-yl)dihydropyrimidine-2,4(1H,3H)-dione]: the “substrate protein remaining % GSPT1” value in test [1] is reported as “B (80%< substrate protein remaining %≤ 100%)”. In addition, in test [2], the “substrate protein remaining % IKZF3” value is given as “B (80%< substrate protein remaining %≤ 100%)”. The “substrate protein remaining % IKZF2” value in test [3] is on record as “A (0% ≤ substrate protein remaining % ≤ 80%)”. Moreover, the “substrate protein remaining % IKZF1” value in test [4] is reported as “B (80%< substrate protein remaining %≤ 100%)”. In test [5], the “substrate protein remaining % WEE1” value is “B (80%< substrate protein remaining %≤ 100%)”. The “substrate protein remaining % CK1α” value in test [6] is listed as “A (0% ≤ substrate protein remaining % ≤ 80%)”.

Take `O=C1CCN(N2C(=O)c3ccc(CN4CC5CC(C4)N5c4cccc(Cl)c4Cl)cc3C2=O)C(=O)N1` [GT-07434, 5-((6-(2,3-dichlorophenyl)-3,6-diazabicyclo[3.1.1]heptan-3-yl)methyl)-2-(2,4-dioxotetrahydropyrimidin-1(2H)-yl)isoindoline-1,3-dione]: the “substrate protein remaining % GSPT1” value in test [1] was “B (80%< substrate protein remaining %≤ 100%)”. The “substrate protein remaining % IKZF3” value in test [2] is “B (80%< substrate protein remaining %≤ 100%)”. Also, in test [3], the “substrate protein remaining % IKZF2” value was “B (80%< substrate protein remaining %≤ 100%)”. Moreover, the “substrate protein remaining % IKZF1” value in test [4] was “B (80%< substrate protein remaining %≤ 100%)”. The “substrate protein remaining % WEE1” value in test [5] is listed as “B (80%< substrate protein remaining %≤ 100%)”. Moreover, in test [6], the “substrate protein remaining % CK1α” value is reported as “A (0% ≤ substrate protein remaining % ≤ 80%)”.

On to `O=C1CCN(N2C(=O)c3ccc(CN4C[C@H]5C[C@@H]4CN5c4cccc(Cl)c4Cl)cc3C2=O)C(=O)N1` [GT-07435, 5-(((1R,4R)-5-(2,3-dichlorophenyl)-2,5-diazabicyclo[2.2.1]heptan-2-yl)methyl)-2-(2,4-dioxotetrahydropyrimidin-1(2H)-yl)isoindoline-1,3-dione], for which the “substrate protein remaining % GSPT1” value in test [1] is “B (80%< substrate protein remaining %≤ 100%)”. Further, the “substrate protein remaining % IKZF3” value in test [2] is “B (80%< substrate protein remaining %≤ 100%)”. Also, in test [3], the “substrate protein remaining % IKZF2” value is listed as “B (80%< substrate protein remaining %≤ 100%)”. Further, the “substrate protein remaining % IKZF1” value in test [4] was “B (80%< substrate protein remaining %≤ 100%)”. Further, in test [5], the “substrate protein remaining % WEE1” value is reported as “B (80%< substrate protein remaining %≤ 100%)”. In addition, the “substrate protein remaining % CK1α” value in test [6] is “A (0% ≤ substrate protein remaining % ≤ 80%)”.

With `O=C1CCN(N2C(=O)c3ccc(CN4CC5CCC4CN5c4cccc(Cl)c4Cl)cc3C2=O)C(=O)N1` (stereo not drawn) [GT-07436, 5-((5-(2,3-dichlorophenyl)-2,5-diazabicyclo[2.2.2]octan-2-yl)methyl)-2-(2,4-dioxotetrahydropyrimidin-1(2H)-yl)isoindoline-1,3-dione], the “substrate protein remaining % GSPT1” value in test [1] is on record as “B (80%< substrate protein remaining %≤ 100%)”. In test [2], the “substrate protein remaining % IKZF3” value is on record as “B (80%< substrate protein remaining %≤ 100%)”. For the same compound, the “substrate protein remaining % IKZF2” value in test [3] was “A (0% ≤ substrate protein remaining % ≤ 80%)”. Further, the “substrate protein remaining % IKZF1” value in test [4] was “B (80%< substrate protein remaining %≤ 100%)”. In test [5], the “substrate protein remaining % WEE1” value is “B (80%< substrate protein remaining %≤ 100%)”. Besides, in test [6], the “substrate protein remaining % CK1α” value was “A (0% ≤ substrate protein remaining % ≤ 80%)”.

In the case of `O=C1CCN(N2C(=O)c3ccc(CN4CC5CCC(C4)N5c4cccc(Cl)c4Cl)cc3C2=O)C(=O)N1` [GT-07437, 5-((8-(2,3-dichlorophenyl)-3,8-diazabicyclo[3.2.1]octan-3-yl)methyl)-2-(2,4-dioxotetrahydropyrimidin-1(2H)-yl)isoindoline-1,3-dione], in test [1], the “substrate protein remaining % GSPT1” value was “A (0% ≤ substrate protein remaining % ≤ 80%)”. Further, the “substrate protein remaining % IKZF3” value in test [2] is “B (80%< substrate protein remaining %≤ 100%)”. Besides, the “substrate protein remaining % IKZF2” value in test [3] is recorded as “B (80%< substrate protein remaining %≤ 100%)”. Besides, the “substrate protein remaining % IKZF1” value in test [4] is recorded as “B (80%< substrate protein remaining %≤ 100%)”. Besides, the “substrate protein remaining % WEE1” value in test [5] was “A (0% ≤ substrate protein remaining % ≤ 80%)”. Besides, in test [6], the “substrate protein remaining % CK1α” value is “A (0% ≤ substrate protein remaining % ≤ 80%)”.

Consider `O=C1CCN(N2C(=O)c3ccc(CN4C5CCC4CN(c4cccc(Cl)c4Cl)C5)cc3C2=O)C(=O)N1` [GT-07438, 5-((3-(2,3-dichlorophenyl)-3,8-diazabicyclo[3.2.1]octan-8-yl)methyl)-2-(2,4-dioxotetrahydropyrimidin-1(2H)-yl)isoindoline-1,3-dione], for which the “substrate protein remaining % GSPT1” value in test [1] was “A (0% ≤ substrate protein remaining % ≤ 80%)”. The “substrate protein remaining % IKZF3” value in test [2] is recorded as “B (80%< substrate protein remaining %≤ 100%)”. Besides, the “substrate protein remaining % IKZF2” value in test [3] was “B (80%< substrate protein remaining %≤ 100%)”. Further, the “substrate protein remaining % IKZF1” value in test [4] was “B (80%< substrate protein remaining %≤ 100%)”. Also, the “substrate protein remaining % WEE1” value in test [5] is recorded as “A (0% ≤ substrate protein remaining % ≤ 80%)”. For the same compound, the “substrate protein remaining % CK1α” value in test [6] is “A (0% ≤ substrate protein remaining % ≤ 80%)”.

Regarding `O=C1CCN(N2C(=O)c3ccc(CN4CCCN(c5cccc(Cl)c5Cl)CC4)cc3C2=O)C(=O)N1` [GT-07439, 5-((4-(2,3-dichlorophenyl)-1,4-diazepan-1-yl)methyl)-2-(2,4-dioxotetrahydropyrimidin-1(2H)-yl)isoindoline-1,3-dione], the “substrate protein remaining % GSPT1” value in test [1] is given as “A (0% ≤ substrate protein remaining % ≤ 80%)”. The “substrate protein remaining % IKZF3” value in test [2] was “B (80%< substrate protein remaining %≤ 100%)”. In test [3], the “substrate protein remaining % IKZF2” value was “B (80%< substrate protein remaining %≤ 100%)”. Also, the “substrate protein remaining % IKZF1” value in test [4] is “B (80%< substrate protein remaining %≤ 100%)”. Also, the “substrate protein remaining % WEE1” value in test [5] is reported as “B (80%< substrate protein remaining %≤ 100%)”. In test [6], the “substrate protein remaining % CK1α” value is listed as “A (0% ≤ substrate protein remaining % ≤ 80%)”.

For the compound `O=C1CCN(N2C(=O)c3ccc(CN4CC=C(c5ccnc(Cl)c5Cl)CC4)cc3C2=O)C(=O)N1` [GT-07440, 5-((2',3'-dichloro-3,6-dihydro-[4,4'-bipyridin]-1(2H)-yl)methyl)-2-(2,4-dioxotetrahydropyrimidin-1(2H)-yl)isoindoline-1,3-dione], the “substrate protein remaining % GSPT1” value in test [1] is “A (0% ≤ substrate protein remaining % ≤ 80%)”. For the same compound, in test [2], the “substrate protein remaining % IKZF3” value was “B (80%< substrate protein remaining %≤ 100%)”. For the same compound, in test [3], the “substrate protein remaining % IKZF2” value is recorded as “B (80%< substrate protein remaining %≤ 100%)”. In test [4], the “substrate protein remaining % IKZF1” value is “B (80%< substrate protein remaining %≤ 100%)”. Moreover, the “substrate protein remaining % WEE1” value in test [5] was “A (0% ≤ substrate protein remaining % ≤ 80%)”. For the same compound, the “substrate protein remaining % CK1α” value in test [6] is given as “A (0% ≤ substrate protein remaining % ≤ 80%)”.
